Test system: A375 multi-cell spheroids with HUVEC/MSC, viability
Assay: Anticancer human tumor A375 cell line growth inhibition [GQUAD];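 note: spheroids exposed to compounds for seven days before readout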
Settings: for IC50: curve of first compound; for viability, T/C: stronger effect = lower value
Source text: DNA G-quadruplex Stabilizer Agents in Combinations in Complex Spheroids
A high-throughput screen of multi-cell type tumor spheroids was designed to identify active combinations of DNA G-quadruplex stabilizer agents and targeted small molecules. Complex spheroids include a stromal component modeled by human endothelial cells (HUVEC) and fibroblasts modeled by human mesenchymal stem cells (MSCs). The concentration ranges selected for each drug and investigational agent were based upon clinically achievable concentrations if the clinical Cmax of the agent was known.
Compounds. The drugs and investigational agents: pidnarulex (CX-5461; NSC782164), APTO-253 (NSC789042), BRACO-19 (NSC847499), peposertib (NSC802822), ceralasertib (NSC780249), elimusertib (NSC800525), camonsertib (NSC841442), AZD-1390 (NSC803789), olaparib (NSC753686), talazoparib (NSC767125), ART-558 (NSC835418), sotorasib (NSC818433), MRTX-1133 (NSC836407), SN-38 (NSC673596), topotecan (NSC609699), etoposide (NSC141540), doxorubicin (NSC123127), gemcitabine (NSC613327), 5-fluorouracil (NSC19893), paclitaxel (NSC125973), vemurafenib (NSC761431), panobinostat (NSC761190), R-306465 (JNJ-16241199; NSC773264), adavosertib (NSC754352), TP-3654 (NSC805149), carboplatin (NSC241240), KSQ-4279 (NSC840948), and staurosporine (NSC755774) were obtained from the National Cancer Institute (NCI) Developmental Therapeutics Program Chemical Repository (34). The FDA-approved anticancer drug set is available from the NCI Developmental Therapeutics Program. […] The stock solutions were prepared in dimethyl sulfoxide (DMSO, Sigma-Aldrich, St. Louis, MO, cat. D2650) at 800-fold the tested concentration and stored at -70 degrees C prior to their use. All drugs and investigational agents were tested over a range starting from a high concentration at or near the clinical Cmax and decreasing in half-log increments. If the clinical Cmax for an agent had not been determined, the highest concentration tested was 10 microM.
2.3 Cell Culture. All cells were maintained in an incubator at 37 degrees C and 5% CO2 with 95% humidity. The PDC lines were cultured according to standard operating procedures established by the NCI PDMR. All PDCs were thawed and cultured in Matrigel-coated flasks prepared with a working solution of 1X Ham's F-12 nutrient mix, without supplementation (Invitrogen, cat. 11765054), 100 U/mL penicillin-streptomycin (Invitrogen, cat. 15140122), and 2.5% Matrigel (Corning Inc., cat. 354248) for the first three passages. The 857933-349-R-J2-PDC line was cultured in 6C/Colon 1B media, which includes advanced DMEM/F-12 (Thermo Fisher Scientific, cat. 12634028), 10 mM HEPES (Thermo Fisher Scientific, cat. 15630080), 1X GlutaMAX supplement (Thermo Fisher Scientific, cat. 35050061), 0.1 mg/mL primocin (InvivoGen, cat. ant-pm-2), 10% defined fetal bovine serum, heat inactivated (HyClone Laboratories Inc., cat. SH30070.03HI), 50% L-WRN conditioned media (ATCC, cat. CRL-3276), 1.25 mM N-Acetyl-L-cysteine (Sigma-Aldrich, cat. A9165), 10 mM nicotinamide (Sigma-Aldrich, cat. N0636), 1X B-27 supplement (Thermo Fisher Scientific, cat. 17504044), 1X N-2 supplement (Thermo Fisher Scientific, cat. 17502048), 10 microM Y-27632 dihydrochloride (Tocris Bioscience, cat. 1254), and 50 ng/mL human EGF recombinant protein (Thermo Fisher Scientific, cat. PHG0311). The 485176-168-R4-J1-PDC line was cultured in Panc media, which includes all 6C/Colon 1B media components plus 100 ng/mL human FGF-10 (Thermo Fisher Scientific, cat. 100-26), 500 nM SB-431542 (Selleckchem, cat. S1067), and gastrin (Tocris, cat. 3006).
[…]

[1] = second compound 0.0316 µM, first compound 0.0316 µM
[2] = second compound 0.0316 µM, first compound 0.1 µM
[3] = second compound 0.0316 µM, first compound 0.316 µM
[4] = second compound 0.0316 µM, first compound 1 µM
[5] = second compound 0.0316 µM, first compound 3.16 µM
[6] = second compound 0.0316 µM, first compound 10 µM
[7] = second compound 0.1 µM, first compound 0.0316 µM
[8] = second compound 0.1 µM, first compound 0.1 µM
[9] = second compound 0.1 µM, first compound 0.316 µM
[10] = second compound 0.1 µM, first compound 1 µM
[11] = second compound 0.1 µM, first compound 3.16 µM
[12] = second compound 0.1 µM, first compound 10 µM
[13] = second compound 0.316 µM, first compound 0.0316 µM
[14] = second compound 0.316 µM, first compound 0.1 µM
[15] = second compound 0.316 µM, first compound 0.316 µM
[16] = second compound 0.316 µM, first compound 1 µM
[17] = second compound 0.316 µM, first compound 3.16 µM
[18] = second compound 0.316 µM, first compound 10 µM
[19] = second compound 1 µM, first compound 0.0316 µM
[20] = second compound 1 µM, first compound 0.1 µM
[21] = second compound 1 µM, first compound 0.316 µM
[22] = second compound 1 µM, first compound 1 µM
[23] = second compound 1 µM, first compound 3.16 µM
[24] = second compound 1 µM, first compound 10 µM
[25] = second compound 3.16 µM, first compound 0.0316 µM
[26] = second compound 3.16 µM, first compound 0.1 µM
[27] = second compound 3.16 µM, first compound 0.316 µM
[28] = second compound 3.16 µM, first compound 1 µM
[29] = second compound 3.16 µM, first compound 3.16 µM
[30] = second compound 3.16 µM, first compound 10 µM
[31] = second compound 10 µM, first compound 0.0316 µM
[32] = second compound 10 µM, first compound 0.1 µM
[33] = second compound 10 µM, first compound 0.316 µM
[34] = second compound 10 µM, first compound 1 µM
[35] = second compound 10 µM, first compound 3.16 µM
[36] = second compound 10 µM, first compound 10 µM

Question: With `COc1ncnc(C2CC2)c1-c1ncc2cnn(Cc3ccc(-c4nc(C(F)(F)F)cn4C(C)C)cc3)c2n1` + CN(C)c1ccc(Nc2c3ccc(NC(=O)CCN4CCCC4)cc3nc3cc(NC(=O)CCN4CCCC4)ccc23)cc1 as the compound, how does the IC50 (second compound 0.0316 µM) read?
Answer: > 10 µM

Question: What about the IC50 (second compound 0.1 µM) of the same compound?
Answer: > 10 µM

Question: What about the IC50 (second compound 0.316 µM) of the same compound?
Answer: > 10 µM

Question: What about the IC50 (second compound 1 µM) of the same compound?
Answer: > 10 µM

Question: What about the IC50 (second compound 3.16 µM) of the same compound?
Answer: > 10 µM

Question: What about the IC50 (second compound 10 µM) of the same compound?
Answer: > 10 µM

Question: What about the viability, T/C [1] of the same compound?
Answer: 108%

Question: And the viability, T/C [2]?
Answer: 100%

Question: What about the viability, T/C [3] of the same compound?
Answer: 115%

Question: And the viability, T/C [4]?
Answer: 104%

Question: And the viability, T/C [5]?
Answer: 108%

Question: And the viability, T/C [6]?
Answer: 104%

Question: And the viability, T/C [7]?
Answer: 105%

Question: What about the viability, T/C [8] of the same compound?
Answer: 105%

Question: What about the viability, T/C [9] of the same compound?
Answer: 102%

Question: And the viability, T/C [10]?
Answer: 103%

Question: And the viability, T/C [11]?
Answer: 105%

Question: And the viability, T/C [12]?
Answer: 114%

Question: What about the viability, T/C [13] of the same compound?
Answer: 103%

Question: What about the viability, T/C [14] of the same compound?
Answer: 110%

Question: And the viability, T/C [15]?
Answer: 110%

Question: What about the viability, T/C [16] of the same compound?
Answer: 101%

Question: What about the viability, T/C [17] of the same compound?
Answer: 107%

Question: And the viability, T/C [18]?
Answer: 105%

Question: What about the viability, T/C [19] of the same compound?
Answer: 109%

Question: And the viability, T/C [20]?
Answer: 91%

Question: What about the viability, T/C [21] of the same compound?
Answer: 101%

Question: And the viability, T/C [22]?
Answer: 112%

Question: And the viability, T/C [23]?
Answer: 104%

Question: What about the viability, T/C [24] of the same compound?
Answer: 102%

Question: What about the viability, T/C [25] of the same compound?
Answer: 109%

Question: And the viability, T/C [26]?
Answer: 102%

Question: What about the viability, T/C [27] of the same compound?
Answer: 109%

Question: What about the viability, T/C [28] of the same compound?
Answer: 104%

Question: What about the viability, T/C [29] of the same compound?
Answer: 106%

Question: And the viability, T/C [30]?
Answer: 104%

Question: And the viability, T/C [31]?
Answer: 93%

Question: And the viability, T/C [32]?
Answer: 101%

Question: What about the viability, T/C [33] of the same compound?
Answer: 94%

Question: And the viability, T/C [34]?
Answer: 98.9%

Question: And the viability, T/C [35]?
Answer: 96.1%

Question: And the viability, T/C [36]?
Answer: 92.8%

Question: Which results are given for `C=CC(=O)N1CCN(c2nc(=O)n(-c3c(C)ccnc3C(C)C)c3nc(-c4c(O)cccc4F)c(F)cc23)C(C)C1` (centres undefined) + Cc1[nH]c2ccc(F)cc2c1-c1nc2c3cccnc3c3ncccc3c2[nH]1?
Answer: IC50 (second compound 0.0316 µM): > 10 µM; IC50 (second compound 0.1 µM): > 10 µM; IC50 (second compound 0.316 µM): > 10 µM; IC50 (second compound 1 µM): > 10 µM; IC50 (second compound 3.16 µM): > 10 µM; IC50 (second compound 10 µM): > 10 µM; viability, T/C [1]: 101%; viability, T/C [2]: 102%; viability, T/C [3]: 96.6%; viability, T/C [4]: 94.5%; viability, T/C [5]: 111%; viability, T/C [6]: 135%; viability, T/C [7]: 116%; viability, T/C [8]: 97.8%; viability, T/C [9]: 103%; viability, T/C [10]: 93.3%; viability, T/C [11]: 140%; viability, T/C [12]: 149%; viability, T/C [13]: 99%; viability, T/C [14]: 102%; viability, T/C [15]: 105%; viability, T/C [16]: 113%; viability, T/C [17]: 152%; viability, T/C [18]: 150%; viability, T/C [19]: 99.1%; viability, T/C [20]: 103%; viability, T/C [21]: 110%; viability, T/C [22]: 120%; viability, T/C [23]: 161%; viability, T/C [24]: 141%; viability, T/C [25]: 94.2%; viability, T/C [26]: 95.5%; viability, T/C [27]: 104%; viability, T/C [28]: 93.6%; viability, T/C [29]: 104%; viability, T/C [30]: 52.9%; viability, T/C [31]: 108%; viability, T/C [32]: 99%; viability, T/C [33]: 116%; viability, T/C [34]: 96.3%; viability, T/C [35]: 121%; viability, T/C [36]: 79.8%

— PubChem BioAssay AID2060485 (Molecular Pharmacology Branch, DTP, NCI, 2025)
